Experimental data: PubChem BioAssay (NCI)
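The compound was tested at five concentrations on cells cultured in 96-well plates, with a 48-hour exposure period. GI50: concentration for 50% inhibition of growth. TGI is the concentration that stops growth completely.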

What was measured:
Experiment in all cases: DTP human tumour cell line panel, 48 h
OVCAR-8 ovarian = tested on: OVCAR-8 ovarian
SN12C renal = tested on: SN12C renal
UACC-62 melanoma = tested on: UACC-62 melanoma
COLO 205 colon = tested on: COLO 205 colon
A549 NSCLC = tested on: A549 NSCLC
HCT-116 colon = tested on: HCT-116 colon
T-47D breast = tested on: T-47D breast
CCRF-CEM leukemia = tested on: CCRF-CEM leukemia
HOP-92 NSCLC = tested on: HOP-92 NSCLC
OVCAR-3 ovarian = tested on: OVCAR-3 ovarian
CAKI-1 renal = tested on: CAKI-1 renal
SW-620 colon = tested on: SW-620 colon
SK-MEL-2 melanoma = tested on: SK-MEL-2 melanoma
M14 melanoma = tested on: M14 melanoma
SF-539 CNS = tested on: SF-539 CNS
UACC-257 melanoma = tested on: UACC-257 melanoma
HCC-2998 colon = tested on: HCC-2998 colon
MOLT-4 leukemia = tested on: MOLT-4 leukemia
LOX IMVI melanoma = tested on: LOX IMVI melanoma
NCI/ADR-RES ovarian = tested on: NCI/ADR-RES ovarian
HL-60(TB) leukemia = tested on: HL-60(TB) leukemia
786-0 renal = tested on: 786-0 renal
NCI-H522 lung = tested on: NCI-H522 lung
SR leukemia = tested on: SR leukemia
SF-268 CNS = tested on: SF-268 CNS
NCI-H23 lung = tested on: NCI-H23 lung
ACHN renal = tested on: ACHN renal
SNB-19 CNS = tested on: SNB-19 CNS
HOP-62 NSCLC = tested on: HOP-62 NSCLC
SK-OV-3 ovarian = tested on: SK-OV-3 ovarian
SK-MEL-5 melanoma = tested on: SK-MEL-5 melanoma
UO-31 renal = tested on: UO-31 renal
EKVX NSCLC = tested on: EKVX NSCLC
IGROV1 ovarian = tested on: IGROV1 ovarian
MDA-MB-231 breast = tested on: MDA-MB-231 breast
SNB-75 CNS = tested on: SNB-75 CNS
NCI-H226 lung = tested on: NCI-H226 lung
MCF7 breast = tested on: MCF7 breast
DU-145 prostate = tested on: DU-145 prostate
RPMI-8226 leukemia = tested on: RPMI-8226 leukemia
OVCAR-4 ovarian = tested on: OVCAR-4 ovarian
RXF 393 renal = tested on: RXF 393 renal
K-562 leukemia = tested on: K-562 leukemia
MDA-MB-435 = tested on: MDA-MB-435
PC-3 prostate = tested on: PC-3 prostate
OVCAR-5 ovarian = tested on: OVCAR-5 ovarian
HS 578T breast = tested on: HS 578T breast
HCT-15 colon = tested on: HCT-15 colon
SF-295 CNS = tested on: SF-295 CNS
U251 CNS = tested on: U251 CNS
SK-MEL-28 melanoma = tested on: SK-MEL-28 melanoma
A498 renal = tested on: A498 renal
KM12 colon = tested on: KM12 colon
NCI-H460 lung = tested on: NCI-H460 lung
BT-549 breast = tested on: BT-549 breast
HT29 colon = tested on: HT29 colon
TK-10 renal = tested on: TK-10 renal

Work on `CCN(CC)c1ccc(C2=NN(C(C)=O)C(c3cc(OC)c(OC)c(OC)c3)C2)cc1` (centres undefined) yielded a GI50 (OVCAR-8 ovarian) of 795 nM, a TGI (OVCAR-8 ovarian) of 11900 nM and a GI50 (SN12C renal) of 1150 nM. It also gave a TGI (SN12C renal) of 16200 nM, a GI50 (UACC-62 melanoma) of 308 nM and a TGI (UACC-62 melanoma) of 13600 nM. The GI50 (COLO 205 colon) was 307 nM, the TGI (COLO 205 colon) was 1160 nM and the GI50 (A549 NSCLC) was 890 nM. It also gave a TGI (A549 NSCLC) of 22500 nM, a GI50 (HCT-116 colon) of 349 nM and a TGI (HCT-116 colon) of 13000 nM. The GI50 (T-47D breast) was 511 nM, the TGI (T-47D breast) was 22600 nM and the GI50 (CCRF-CEM leukemia) was 304 nM. The TGI (CCRF-CEM leukemia) was 1420 nM, the GI50 (HOP-92 NSCLC) was 1820 nM and the TGI (HOP-92 NSCLC) was 20300 nM. It also gave a GI50 (OVCAR-3 ovarian) of 360 nM, a TGI (OVCAR-3 ovarian) of 11000 nM and a GI50 (CAKI-1 renal) of 134 nM. For the same compound, the TGI (CAKI-1 renal) was 21000 nM, the GI50 (SW-620 colon) was 368 nM and the TGI (SW-620 colon) was 14400 nM. For the same compound, the GI50 (SK-MEL-2 melanoma) was 2370 nM, the TGI (SK-MEL-2 melanoma) was 26100 nM and the GI50 (M14 melanoma) was 418 nM. It also gave a TGI (M14 melanoma) of 6070 nM, a GI50 (SF-539 CNS) of 283 nM and a TGI (SF-539 CNS) of 1160 nM. For the same compound, the GI50 (UACC-257 melanoma) was 16000 nM, the TGI (UACC-257 melanoma) was 39800 nM and the GI50 (HCC-2998 colon) was 1050 nM. It also gave a TGI (HCC-2998 colon) of 8040 nM, a GI50 (MOLT-4 leukemia) of 341 nM and a TGI (MOLT-4 leukemia) of 3570 nM. It also gave a GI50 (LOX IMVI melanoma) of 568 nM, a TGI (LOX IMVI melanoma) of 16000 nM and a GI50 (NCI/ADR-RES ovarian) of 247 nM. It also gave a TGI (NCI/ADR-RES ovarian) of 810 nM, a GI50 (HL-60(TB) leukemia) of 209 nM and a TGI (HL-60(TB) leukemia) of 541 nM. For the same compound, the GI50 (786-0 renal) was 491 nM, the TGI (786-0 renal) was 13300 nM and the GI50 (NCI-H522 lung) was 307 nM. For the same compound, the TGI (NCI-H522 lung) was 2840 nM, the GI50 (SR leukemia) was 70.8 nM and the TGI (SR leukemia) was 685 nM. The GI50 (SF-268 CNS) was 867 nM, the TGI (SF-268 CNS) was 20900 nM and the GI50 (NCI-H23 lung) was 870 nM. For the same compound, the TGI (NCI-H23 lung) was 17400 nM, the GI50 (ACHN renal) was 563 nM and the TGI (ACHN renal) was 23000 nM. The GI50 (SNB-19 CNS) was 476 nM, the TGI (SNB-19 CNS) was 13300 nM and the GI50 (HOP-62 NSCLC) was 3960 nM. It also gave a TGI (HOP-62 NSCLC) of 24200 nM, a GI50 (SK-OV-3 ovarian) of 410 nM and a TGI (SK-OV-3 ovarian) of 10600 nM. For the same compound, the GI50 (SK-MEL-5 melanoma) was 378 nM, the TGI (SK-MEL-5 melanoma) was 5050 nM and the GI50 (UO-31 renal) was 1130 nM. It also gave a TGI (UO-31 renal) of 21000 nM, a GI50 (EKVX NSCLC) of 600 nM and a TGI (EKVX NSCLC) of 11000 nM. For the same compound, the GI50 (IGROV1 ovarian) was 769 nM, the TGI (IGROV1 ovarian) was 33600 nM and the GI50 (MDA-MB-231 breast) was 1240 nM. For the same compound, the TGI (MDA-MB-231 breast) was 6900 nM, the GI50 (SNB-75 CNS) was 233 nM and the TGI (SNB-75 CNS) was 3590 nM. It also gave a GI50 (NCI-H226 lung) of 1740 nM, a TGI (NCI-H226 lung) of 11800 nM and a GI50 (MCF7 breast) of 317 nM. It also gave a TGI (MCF7 breast) of 11400 nM, a GI50 (DU-145 prostate) of 399 nM and a TGI (DU-145 prostate) of 2280 nM. For the same compound, the GI50 (RPMI-8226 leukemia) was 180 nM, the TGI (RPMI-8226 leukemia) was 579 nM and the GI50 (OVCAR-4 ovarian) was 583 nM. The TGI (OVCAR-4 ovarian) was 29200 nM, the GI50 (RXF 393 renal) was 380 nM and the TGI (RXF 393 renal) was 2430 nM. For the same compound, the GI50 (K-562 leukemia) was 689 nM, the TGI (K-562 leukemia) was greater than 100000 nM and the GI50 (MDA-MB-435) was 166 nM. The TGI (MDA-MB-435) was 363 nM, the GI50 (PC-3 prostate) was 339 nM and the TGI (PC-3 prostate) was 12200 nM. It also gave a GI50 (OVCAR-5 ovarian) of 1450 nM, a TGI (OVCAR-5 ovarian) of 15300 nM and a GI50 (HS 578T breast) of 348 nM. The TGI (HS 578T breast) was 26600 nM, the GI50 (HCT-15 colon) was 441 nM and the TGI (HCT-15 colon) was 12100 nM. The GI50 (SF-295 CNS) was 258 nM, the TGI (SF-295 CNS) was 1460 nM and the GI50 (U251 CNS) was 406 nM. For the same compound, the TGI (U251 CNS) was 11500 nM, the GI50 (SK-MEL-28 melanoma) was 819 nM and the TGI (SK-MEL-28 melanoma) was 19100 nM. For the same compound, the GI50 (A498 renal) was 344 nM, the TGI (A498 renal) was 4130 nM and the GI50 (KM12 colon) was 349 nM. It also gave a TGI (KM12 colon) of 12100 nM, a GI50 (NCI-H460 lung) of 371 nM and a TGI (NCI-H460 lung) of 4710 nM. It also gave a GI50 (BT-549 breast) of 667 nM, a TGI (BT-549 breast) of 7900 nM and a GI50 (HT29 colon) of 354 nM. For the same compound, the TGI (HT29 colon) was 1680 nM, the GI50 (TK-10 renal) was 549 nM and the TGI (TK-10 renal) was 17000 nM.
